From patent US9562053B2, “Benzo-fused heterocyclic derivatives useful as agonists of GPR120” (Janssen Pharmaceutica NV, priority 2013, dated 2017)

These molecules were tested against T1, Human GPR120 short form (Homo sapiens, UniProt Q5NUL3) (assay: Human GPR120 in Calcium Flux Assay, Procedure Calcium A (2500 cells/well)).
T1 construct: expressed in transfected cells
T1 sequence (Q5NUL3 1-361): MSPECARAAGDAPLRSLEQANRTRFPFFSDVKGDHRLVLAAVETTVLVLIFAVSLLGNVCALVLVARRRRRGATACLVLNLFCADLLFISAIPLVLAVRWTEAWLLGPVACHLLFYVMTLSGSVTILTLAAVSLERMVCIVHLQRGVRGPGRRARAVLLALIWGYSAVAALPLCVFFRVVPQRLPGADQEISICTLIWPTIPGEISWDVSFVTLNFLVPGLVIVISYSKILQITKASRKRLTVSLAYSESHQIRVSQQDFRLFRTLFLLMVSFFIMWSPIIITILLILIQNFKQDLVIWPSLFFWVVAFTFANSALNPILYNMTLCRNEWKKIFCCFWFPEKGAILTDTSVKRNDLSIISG
Assay type: cell-based
Excerpt: This in vitro assay serves to assess test compound agonist activity against the short splice variant (SVS with Accession number NM_001195755.1 confirmed by sequencing data) of the GPR120 receptor. The Human Short splice variant #2 (NM_001195755.1) is missing an in-frame coding exon compared to variant 1 (the Human Long splice variant NM_181745.3), resulting in a shorter isoform (GPR120-S) lacking a 16 aa protein segment compared to isoform GPR120-L. The assay platform utilizes HEK-293 cells stably transfected to express the Human GPR120 short form. These cells are first loaded with the Ca^+2 sensitive dye, Fluo-4 NW. Upon stimulation, intracellular released Ca^+2 can bind to the dye and alter its fluorescence intensity. This increase in fluorescence signal, and thus the flux in intracellular [Ca^+2], is detected and quantitated by fluorescence imaging using a FLIPR reader. The effect of the agonist is measured as a function of concentration and used to calculate an EC50 based upon a response curve.
In this procedure 2500 cells/well were employed.
A Human GPR120 clone (Genbank accession number NM_001195755.1) was placed into the pcDNA3.1 mammalian expression vector carrying the neomycin resistance gene. A stable mammalian cell was generated by placing the above clone into a HEK293 background. Clonal cells responding to long chain fatty acids had expression levels of GPR120 confirmed by RT-qPCR. Human HEK-GPR120 cells were cultured in Dulbecco's Modified Eagle's Medium (DMEM)/F12 medium supplemented with 10% fetal bovine serum (FBS), 1% L-Glutamine and 1% penicillin/streptomycin and 0.5 mg/ml G-418. Cells were split 2 times a week to keep the cells in the log-phase growth.
In preparation for the assay, HEK cells stably transfected with Human GPR120 (2.5K cells per well in 25 uL growth medium) were seeded into 384-well plates and then incubated overnight (37° C., 5% CO2). The next day, the media was changed to 20 μl assay buffer and the cell starved for 1 h at 37° C. The dye loading solution (2× dye) was prepared using 10 ml assay buffer, 100 μl of 250 mM probenecid, 1 bottle of Component A, and 20 μl of dye in DMSO. Twenty μl of the 2× dye loading buffer was then added to each well. The plates were incubated at 37° C. for 30 min, then at room temperature for an additional 15 minutes, before performing the assay on FLIPR.
Test compounds were prepared in assay buffer (2 μl of test compound+198 μl assay buffer, final DMSO in assay plate is 0.2%) at the desired concentration, more particularly at 100 μM, 50 μM, 25 μM, 12.5 μM, 6.25 μM, 3.125 μM, 1.562 μM, 0.781 μM, 0.391 μM, 0.195 μM, 0.098 μM, 0.049 μM, 0.024 μM and 0.012 μM.
The assay was performed on a FLIPR plate reader using the following parameters. Baseline was read for 10 seconds at 1 sec intervals. The program was set to transfer 10 μL of ligand from compound plate to cell plate after baseline reading. Aspiration was executed at: 10 μl/sec speed, 4.6 μl height; Dispensing was executed at: 30 μl/sec speed, 45 μl height. After compound addition, each well was read for 300 sec, with measurements collected at 1 sec intervals.
The kinetic data from the FLIPR was based upon a 5 minute window for data collection. The fluorescence of each sample well was used for individual calculations of a normalized RFU value, which was defined as maximum response minus the minimum response. The normalized fluorescence reading (RFU) was calculated as follows: RFU=Fmax−Fmin
The data were fitted to a sigmoidal dose-response curve with a variable Hill slope (<2) using nonlinear regression with GraphPad Prism 5.0 to calculate the EC50 values. The Fitting Equation was: Y=Bottom+(Top−Bottom)/(1+10^((LogEC50−X)*HillSlope)), where X is the log of the concentration and Y is the response.

Row | SMILES | EC50
1 | Cc1c(CCC(=O)O)ccc(OCc2cc(F)cc3cc(CC4CCCC4)oc23)c1C [Compound 19, 3-(4-{[2-(Cyclopentylmethyl)-5-fluoro-1-benzofuran-7-yl]methoxy}-2,3-dimethylphenyl)propanoic acid] | 1680 nM
2 | Cc1c(CCC(=O)O)ccc(OCc2cc(F)cc3cc(Cc4ccccc4)oc23)c1C [Compound 20, 3-{4-[(2-Benzyl-5-fluoro-1-benzofuran-7-yl)methoxy]-2,3-dimethylphenyl}propanoic acid] | 5290 nM
3 | Cc1c(CCC(=O)O)ccc(OCc2cc(F)cc3cc(CCO)oc23)c1C [Compound 15, 3-(4-{[5-Fluoro-2-(2-hydroxyethyl)-1-benzofuran-7-yl]methoxy}-2,3-dimethylphenyl)propanoic acid] | 4750 nM
4 | Cc1cc2c(COc3c(F)cc(CCC(=O)O)cc3F)cc(Cl)cc2s1 [Compound 102, 3-{4-[(6-Chloro-2-methyl-1-benzothiophen-4-yl)methoxy]-3,5-difluorophenyl}propanoic acid] | > 5000 nM
5 | Cc1oc2c(COc3c(Br)cc(CCC(=O)O)c(C)c3C)cc(OC(F)(F)F)cc2c1Br [Compound 120, 3-(5-Bromo-4-{[3-bromo-2-methyl-5-(trifluoromethoxy)-1-benzofuran-7-yl]methoxy}-2,3-dimethylphenyl)propanoic acid] | 1540 nM
6 | Cc1cc2cc(CCCS(C)(=O)=O)cc(COc3ccc(CCC(=O)O)c(C)c3C)c2o1 [Compound 100, 3-[2,3-Dimethyl-4-({2-methyl-5-[3-(methylsulfonyl)propyl]-1-benzofuran-7-yl}methoxy)phenyl]propanoic acid] | > 5000 nM
7 | CCCc1cc2cc(Cl)cc(COc3cc(C)c(CCC(=O)O)cn3)c2o1 [Compound 34, 3-{6-[(5-Chloro-2-propyl-1-benzofuran-7-yl)methoxy]-4-methylpyridin-3-yl}propanoic acid] | 1020 nM
8 | Cc1c(CCC(=O)O)ccc(OCc2cc(F)cc3cc(CO)oc23)c1C [Compound 14, 3-(4-{[5-Fluoro-2-(hydroxymethyl)-1-benzofuran-7-yl]methoxy}-2,3-dimethylphenyl)propanoic acid] | 1320 nM
9 | Cc1c(CCC(=O)O)ccc(OCc2cc(F)cc3cc(CCC(C)C)oc23)c1C [Compound 9, 3-(4-{[5-Fluoro-2-(3-methylbutyl)-1-benzofuran-7-yl]methoxy}-2,3-dimethylphenyl)propanoic acid] | 2750 nM
10 | CCc1cc2cc(C#N)cc(COc3ccc(CCC(=O)O)c(C)c3C)c2o1 [Compound 123, 3-(4-((5-cyano-2-ethylbenzofuran-7-yl)methoxy)-2,3-dimethylphenyl)propanoic acid] | 1410 nM
11 | CCc1cc2cc(F)cc(COc3cc(C)c(CCC(=O)O)cn3)c2o1 [Compound 33, 3-{6-[(2-Ethyl-5-fluoro-1-benzofuran-7-yl)methoxy]-4-methylpyridin-3-yl}propanoic acid] | 1110 nM
12 | Cc1cc2cc(C#CCS(C)(=O)=O)cc(COc3ccc(CCC(=O)O)c(C)c3C)c2o1 [Compound 99, 3-[2,3-Dimethyl-4-({2-methyl-5-[3-(methylsulfonyl)prop-1-yn-1-yl]-1-benzofuran-7-yl}methoxy)phenyl]propanoic acid] | > 5000 nM
13 | Cc1cc2c(COc3ccc(CCC(=O)O)c(C)c3C)cc(Cl)cc2s1 [Compound 101, 3-{4-[(6-Chloro-2-methyl-1-benzothiophen-4-yl)methoxy]-2,3-dimethylphenyl}propanoic acid] | 3200 nM
14 | Cc1cc2c(COc3c(F)cc(CCCO)cc3F)cc(Cl)cc2s1 [Compound 103, 3-{4-[(6-Chloro-2-methyl-1-benzothiophen-4-yl)methoxy]-3,5-difluorophenyl}propan-1-ol] | 3000 nM

Molecules with a lower EC50, results first:

Row | EC50 | SMILES
15 | 759 nM | CCc1cc2cc3c(c(COc4ccc(CCC(=O)O)c(C)c4C)c2o1)CC(C)(C)O3 [Compound 30, 3-{4-[(6-Ethyl-2,2-dimethyl-2,3-dihydrobenzo[1,2-b:4,5-b′]difuran-4-yl)methoxy]-2,3-dimethylphenyl}propanoic acid]
16 | 673 nM | CCc1cc2cc(OC(F)(F)F)cc(COc3cc(CC(C)C)c(CCC(=O)O)cc3F)c2o1 [Compound 53, 3-[4-{[2-Ethyl-5-(trifluoromethoxy)-1-benzofuran-7-yl]methoxy}-5-fluoro-2-(2-methylpropyl)phenyl]propanoic acid]
17 | 424 nM | COCCc1cc2cc(F)cc(COc3ccc(CCC(=O)O)c(C)c3C)c2o1 [Compound 10, 3-(4-{[5-Fluoro-2-(2-methoxyethyl)-1-benzofuran-7-yl]methoxy}-2,3-dimethylphenyl)propanoic acid]
18 | 417 nM | Cc1cc2cc(Cl)cc(COc3c(F)cc(CCC(=O)O)cc3F)c2s1 [Compound 92, 3-{4-[(5-Chloro-2-methyl-1-benzothiophen-7-yl)methoxy]-3,5-difluorophenyl}propanoic acid]
19 | 392 nM | CCc1cc2cc(OC(F)(F)F)cc(COc3cc(CCC(C)C)c(CCC(=O)O)cc3F)c2o1 [Compound 51, 3-[4-{[2-Ethyl-5-(trifluoromethoxy)-1-benzofuran-7-yl]methoxy}-5-fluoro-2-(3-methylbutyl)phenyl]propanoic acid]
20 | 274 nM | Cc1c(CCC(=O)O)ccc(OCc2cc(OC(F)(F)F)cc3cc(CCO)oc23)c1C [Compound 94, 3-(4-{[2-(2-Hydroxyethyl)-5-(trifluoromethoxy)-1-benzofuran-7-yl]methoxy}-2,3-dimethylphenyl)propanoic acid]
21 | 134 nM | Cc1nc2c(COc3ccc(CCC(=O)O)c(C)c3C)cc(Cl)cc2o1 [Compound 95, 3-{4-[(6-Chloro-2-methyl-1,3-benzoxazol-4-yl)methoxy]-2,3-dimethylphenyl}propanoic acid]
22 | 28 nM | C#Cc1cc(COc2ccc(CCC(=O)O)c(C)c2C)c2oc(CCC)cc2c1 [Compound 38, 3-{4-[(5-Ethynyl-2-propyl-1-benzofuran-7-yl)methoxy]-2,3-dimethylphenyl}propanoic acid]
